ChEMBL document CHEMBL6114948, “Deep mutational scanning-guided design of a high-affinity helix-loop-helix peptide targeting G-CSF receptor” (Bioorg Med Chem Lett, 2025)
Residues, ends and D or L forms follow the SMILES beside them.

How the values were obtained:
[1] = Binding affinity to recombinant G-CSFR extracellular domain (unknown origin) by surface plasmon resonance analysis; set-up: species or system Homo sapiens
[2] = Stability of the compound at 20 deg C assessed as change in alpha-helical structure by CD spectra analysis; type: physicochemical
[3] = molecular target: T1, Granulocyte colony-stimulating factor receptor (Homo sapiens) (UniProt Q99062); assay: Potency index, ratio of P8-2KA KD to test compound KD for binding affinity to recombinant G-CSFR extracellular domain (unknown origin)
T1 sequence (whole entry): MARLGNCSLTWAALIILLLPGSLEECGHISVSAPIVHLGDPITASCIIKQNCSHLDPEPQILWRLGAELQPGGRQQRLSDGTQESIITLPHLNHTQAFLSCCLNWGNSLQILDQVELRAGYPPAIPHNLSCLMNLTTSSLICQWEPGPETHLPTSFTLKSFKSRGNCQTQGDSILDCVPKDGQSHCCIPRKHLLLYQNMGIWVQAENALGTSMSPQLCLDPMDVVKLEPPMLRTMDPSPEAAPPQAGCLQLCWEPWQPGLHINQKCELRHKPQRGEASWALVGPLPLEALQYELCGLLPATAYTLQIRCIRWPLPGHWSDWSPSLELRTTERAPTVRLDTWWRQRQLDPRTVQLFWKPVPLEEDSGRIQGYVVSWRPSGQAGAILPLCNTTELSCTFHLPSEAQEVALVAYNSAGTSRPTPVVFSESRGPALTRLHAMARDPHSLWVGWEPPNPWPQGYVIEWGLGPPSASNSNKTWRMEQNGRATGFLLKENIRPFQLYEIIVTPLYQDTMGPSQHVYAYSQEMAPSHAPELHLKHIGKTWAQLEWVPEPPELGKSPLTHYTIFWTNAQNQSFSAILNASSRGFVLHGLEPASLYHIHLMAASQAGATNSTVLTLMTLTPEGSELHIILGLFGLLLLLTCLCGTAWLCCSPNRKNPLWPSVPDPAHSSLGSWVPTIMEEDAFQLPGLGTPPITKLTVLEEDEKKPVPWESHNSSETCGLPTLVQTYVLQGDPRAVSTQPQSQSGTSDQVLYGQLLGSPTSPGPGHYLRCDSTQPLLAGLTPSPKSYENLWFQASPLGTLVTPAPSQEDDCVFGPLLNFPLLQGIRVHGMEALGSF

Compound	Kd [1] [nM]	Stability [2]	Ratio [3]
H-AELAALEAELAALEGGGGGGGKLAMLKLKLAELKRY-OH	380	Stable	–
H-AELAILEAEIAALEGGGGGGGYLEMLKLKLAEAKRY-OH	16	Stable	24
CC[C@H](C)[C@H](NC(=O)[C@H](C)NC(=O)[C@H](CC(C)C)NC(=O)[C@H](CCC(=O)O)NC(=O)[C@H](C)NC(=O)[C@H](C)NC(=O)[C@@H](N)CS)C(=O)N[C@@H](CC(C)C)C(=O)N[C@@H](CCC(=O)O)C(=O)N[C@@H](C)C(=O)N[C@@H](CCC(=O)O)C(=O)N[C@H](C(=O)N[C@@H](C)C(=O)N[C@@H](C)C(=O)N[C@@H](CC(C)C)C(=O)N[C@@H](CCC(=O)O)C(=O)NCC(=O)NCC(=O)NCC(=O)NCC(=O)NCC(=O)NCC(=O)NCC(=O)N[C@@H](Cc1ccc(O)cc1)C(=O)N[C@@H](CC(C)C)C(=O)N[C@@H](CCC(=O)O)C(=O)N[C@@H](CCSC)C(=O)N[C@@H](CC(C)C)C(=O)N[C@@H](CCCCN)C(=O)N[C@@H](CC(C)C)C(=O)N[C@@H](CCCCN)C(=O)N[C@@H](CC(C)C)C(=O)N[C@@H](C)C(=O)N[C@@H](CCC(=O)O)C(=O)N[C@@H](CC(C)C)C(=O)N[C@@H](CCCCN)C(=O)N[C@@H](CCCNC(=N)N)C(=O)N[C@@H](Cc1ccc(O)cc1)C(=O)N[C@@H](CS)C(=O)O)[C@@H](C)CC (H-CAAELAILEAEIAALEGGGGGGGYLEMLKLKLAELKRYC-OH)	2.8	–	–
CC[C@H](C)[C@H](NC(=O)[C@H](C)NC(=O)[C@H](CC(C)C)NC(=O)[C@H](CCC(=O)O)NC(=O)[C@H](C)NC(=O)[C@H](C)NC(=O)[C@@H](N)CS)C(=O)N[C@@H](CC(C)C)C(=O)N[C@@H](CCC(=O)O)C(=O)N[C@@H](C)C(=O)N[C@@H](CCC(=O)O)C(=O)N[C@H](C(=O)N[C@@H](C)C(=O)N[C@@H](C)C(=O)N[C@@H](CC(C)C)C(=O)N[C@@H](CCC(=O)O)C(=O)NCC(=O)NCC(=O)NCC(=O)NCC(=O)NCC(=O)NCC(=O)NCC(=O)N[C@@H](CCCCN)C(=O)N[C@@H](CC(C)C)C(=O)N[C@@H](CCC(=O)O)C(=O)N[C@@H](CCSC)C(=O)N[C@@H](CC(C)C)C(=O)N[C@@H](CCCCN)C(=O)N[C@@H](CC(C)C)C(=O)N[C@@H](CCCCN)C(=O)N[C@@H](CC(C)C)C(=O)N[C@@H](C)C(=O)N[C@@H](CCC(=O)O)C(=O)N[C@@H](C)C(=O)N[C@@H](CCCCN)C(=O)N[C@@H](CCCNC(=N)N)C(=O)N[C@@H](Cc1ccc(O)cc1)C(=O)N[C@@H](CS)C(=O)O)[C@@H](C)CC (H-CAAELAILEAEIAALEGGGGGGGKLEMLKLKLAEAKRYC-OH)	0.89	–	–

Now those with a lower Kd [1], led by results:

Kd [1] [nM]	Stability [2]	Ratio [3]	Compound
0.49	–	–	CC[C@H](C)[C@H](NC(=O)[C@H](C)NC(=O)[C@H](CC(C)C)NC(=O)[C@H](CCC(=O)O)NC(=O)[C@H](C)NC(=O)[C@H](C)NC(=O)[C@@H](N)CS)C(=O)N[C@@H](CC(C)C)C(=O)N[C@@H](CCC(=O)O)C(=O)N[C@@H](C)C(=O)N[C@@H](CCC(=O)O)C(=O)N[C@@H](CC(C)C)C(=O)N[C@@H](C)C(=O)N[C@@H](C)C(=O)N[C@@H](CC(C)C)C(=O)N[C@@H](CCC(=O)O)C(=O)NCC(=O)NCC(=O)NCC(=O)NCC(=O)NCC(=O)NCC(=O)NCC(=O)N[C@@H](Cc1ccc(O)cc1)C(=O)N[C@@H](CC(C)C)C(=O)N[C@@H](CCC(=O)O)C(=O)N[C@@H](CCSC)C(=O)N[C@@H](CC(C)C)C(=O)N[C@@H](CCCCN)C(=O)N[C@@H](CC(C)C)C(=O)N[C@@H](CCCCN)C(=O)N[C@@H](CC(C)C)C(=O)N[C@@H](C)C(=O)N[C@@H](CCC(=O)O)C(=O)N[C@@H](C)C(=O)N[C@@H](CCCCN)C(=O)N[C@@H](CCCNC(=N)N)C(=O)N[C@@H](Cc1ccc(O)cc1)C(=O)N[C@@H](CS)C(=O)O (H-CAAELAILEAELAALEGGGGGGGYLEMLKLKLAEAKRYC-OH)
0.24	–	–	CC[C@H](C)[C@H](NC(=O)[C@H](CCC(=O)O)NC(=O)[C@H](C)NC(=O)[C@H](CCC(=O)O)NC(=O)[C@H](CC(C)C)NC(=O)[C@H](C)NC(=O)[C@H](C)NC(=O)[C@H](CC(C)C)NC(=O)[C@H](CCC(=O)O)NC(=O)[C@H](C)NC(=O)[C@H](C)NC(=O)[C@@H](N)CS)C(=O)N[C@@H](C)C(=O)N[C@@H](C)C(=O)N[C@@H](CC(C)C)C(=O)N[C@@H](CCC(=O)O)C(=O)NCC(=O)NCC(=O)NCC(=O)NCC(=O)NCC(=O)NCC(=O)NCC(=O)N[C@@H](Cc1ccc(O)cc1)C(=O)N[C@@H](CC(C)C)C(=O)N[C@@H](CCC(=O)O)C(=O)N[C@@H](CCSC)C(=O)N[C@@H](CC(C)C)C(=O)N[C@@H](CCCCN)C(=O)N[C@@H](CC(C)C)C(=O)N[C@@H](CCCCN)C(=O)N[C@@H](CC(C)C)C(=O)N[C@@H](C)C(=O)N[C@@H](CCC(=O)O)C(=O)N[C@@H](C)C(=O)N[C@@H](CCCCN)C(=O)N[C@@H](CCCNC(=N)N)C(=O)N[C@@H](Cc1ccc(O)cc1)C(=O)N[C@@H](CS)C(=O)O (H-CAAELAALEAEIAALEGGGGGGGYLEMLKLKLAEAKRYC-OH)
0.18	–	–	CC[C@H](C)[C@H](NC(=O)[C@H](C)NC(=O)[C@H](CC(C)C)NC(=O)[C@H](CCC(=O)O)NC(=O)[C@H](C)NC(=O)[C@H](C)NC(=O)[C@@H](N)CS)C(=O)N[C@@H](CC(C)C)C(=O)N[C@@H](CCC(=O)O)C(=O)N[C@@H](C)C(=O)N[C@@H](CCC(=O)O)C(=O)N[C@H](C(=O)N[C@@H](C)C(=O)N[C@@H](C)C(=O)N[C@@H](CC(C)C)C(=O)N[C@@H](CCC(=O)O)C(=O)NCC(=O)NCC(=O)NCC(=O)NCC(=O)NCC(=O)NCC(=O)NCC(=O)N[C@@H](Cc1ccc(O)cc1)C(=O)N[C@@H](CC(C)C)C(=O)N[C@@H](CCC(=O)O)C(=O)N[C@@H](CCSC)C(=O)N[C@@H](CC(C)C)C(=O)N[C@@H](CCCCN)C(=O)N[C@@H](CC(C)C)C(=O)N[C@@H](CCCCN)C(=O)N[C@@H](CC(C)C)C(=O)N[C@@H](C)C(=O)N[C@@H](CCC(=O)O)C(=O)N[C@@H](C)C(=O)N[C@@H](CCCCN)C(=O)N[C@@H](CCCNC(=N)N)C(=O)N[C@@H](Cc1ccc(O)cc1)C(=O)N[C@@H](CS)C(=O)O)[C@@H](C)CC (H-CAAELAILEAEIAALEGGGGGGGYLEMLKLKLAEAKRYC-OH)
0.16	–	–	CC[C@H](C)[C@H](NC(=O)[C@H](C)NC(=O)[C@H](CC(C)C)NC(=O)[C@H](CCC(=O)O)NC(=O)[C@H](C)NC(=O)[C@H](C)NC(=O)[C@@H](N)CS)C(=O)N[C@@H](CC(C)C)C(=O)N[C@@H](CCC(=O)O)C(=O)N[C@@H](C)C(=O)N[C@@H](CCC(=O)O)C(=O)N[C@H](C(=O)N[C@@H](C)C(=O)N[C@@H](C)C(=O)N[C@@H](CC(C)C)C(=O)N[C@@H](CCC(=O)O)C(=O)NCC(=O)NCC(=O)NCC(=O)NCC(=O)NCC(=O)NCC(=O)NCC(=O)N[C@@H](Cc1ccc(O)cc1)C(=O)N[C@@H](CC(C)C)C(=O)N[C@@H](C)C(=O)N[C@@H](CCSC)C(=O)N[C@@H](CC(C)C)C(=O)N[C@@H](CCCCN)C(=O)N[C@@H](CC(C)C)C(=O)N[C@@H](CCCCN)C(=O)N[C@@H](CC(C)C)C(=O)N[C@@H](C)C(=O)N[C@@H](CCC(=O)O)C(=O)N[C@@H](C)C(=O)N[C@@H](CCCCN)C(=O)N[C@@H](CCCNC(=N)N)C(=O)N[C@@H](Cc1ccc(O)cc1)C(=O)N[C@@H](CS)C(=O)O)[C@@H](C)CC (H-CAAELAILEAEIAALEGGGGGGGYLAMLKLKLAEAKRYC-OH)
